Values quoted from earlier work in patent publication US6369065B1, “CD40 signal blocking agent” (UCB S.A., priority 2000, dated 2002).

Tested on: aorta lesions
Conditions: rabbit models of arteriosclerosis

SMILES: CCCCCN(CCO)c1cc(N2CCCCC2)nc2ncnn12 [AR12463]
- progress of aorta lesions: suppress the progress of aorta lesions
